The values below come from ChEMBL document CHEMBL1126669, “A remarkable change of opioid receptor selectivity on the attachment of a peptidomimetic kappa address element to the delta antagonist, natrindole: 5'-[N2-alkylamidino)methyl]naltrindole derivatives as a novel class of kappa opioid receptor antagonists” (J Med Chem, 1993).

The target in assay [1] is Kappa-type opioid receptor (Cavia porcellus) (UniProt P41144). Briefly: Ratio of IC50 of ethylketazocine (EK) in the presence (100 nM) to that of ethylketazocine (EK) alone, against kappa opioid receptor in Guinea pig ileum preparation. Format: tissue-based.
Assay [2] addresses Delta-type opioid receptor (Mus musculus) (UniProt P32300). Briefly: Ratio of IC50 of [D-Ala2,D-Leu5]enkephalin (DADLE) in the presence (100 nM) to that of [(DADLE) alone, against delta opioid receptor in mouse vas deferens preparation.
In assay [3] the target is Mu-type opioid receptor (Cavia porcellus) (UniProt P97266). In words: Ratio of IC50 of morphine (M) in the presence (100 nM) to that of morphine (M) alone, against mu opioid receptor in Guinea pig ileum preparation. Format: tissue-based.
Assay [4] has as its target Opioid receptors; delta & kappa (Homo sapiens) (UniProt P41145+P41143). Briefly: Selectivity ratio is IC50 value of kappa-opioid receptor to that of delta-opioid receptor. The assay is classed as protein assay.
Assay [5] has as its target Opioid receptors; mu & kappa (Homo sapiens) (UniProt P41145+P35372). In words: Selectivity ratio is IC50 value of kappa-opioid receptor to that of mu-opioid receptor. The assay is classed as protein assay.
For assay [6], the target named is Kappa-type opioid receptor (Cavia porcellus, UniProt P41144). Briefly: Binding affinity for k opioid receptor was determined using [3H]U-69593 radioligand in Guinea pig brain membranes. Format: cell membranes, Membrane.
Assay [7] has as its target Mu-type opioid receptor (Cavia porcellus, UniProt P97266). In words: Binding affinity for mu opioid receptor was determined using radioligand [3H][D-Ala2,MePhe4,Gly-ol6]enkephalin (DAMGO) in Guinea pig brain membranes. The assay is classed as cell membranes.

Chain of Opioid receptors; delta & kappa (Homo sapiens) (P41143 whole entry, looked up): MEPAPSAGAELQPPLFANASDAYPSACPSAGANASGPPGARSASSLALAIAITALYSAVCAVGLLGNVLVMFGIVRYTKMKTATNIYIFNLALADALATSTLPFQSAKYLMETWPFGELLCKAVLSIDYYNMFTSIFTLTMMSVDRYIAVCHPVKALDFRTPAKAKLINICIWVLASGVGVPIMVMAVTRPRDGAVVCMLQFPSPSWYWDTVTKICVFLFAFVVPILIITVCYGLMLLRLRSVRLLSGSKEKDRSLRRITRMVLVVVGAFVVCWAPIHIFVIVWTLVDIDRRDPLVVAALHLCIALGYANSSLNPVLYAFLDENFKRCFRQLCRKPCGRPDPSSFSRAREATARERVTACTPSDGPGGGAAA
Chain of Opioid receptors; delta & kappa (Homo sapiens) (P41145 whole entry, looked up): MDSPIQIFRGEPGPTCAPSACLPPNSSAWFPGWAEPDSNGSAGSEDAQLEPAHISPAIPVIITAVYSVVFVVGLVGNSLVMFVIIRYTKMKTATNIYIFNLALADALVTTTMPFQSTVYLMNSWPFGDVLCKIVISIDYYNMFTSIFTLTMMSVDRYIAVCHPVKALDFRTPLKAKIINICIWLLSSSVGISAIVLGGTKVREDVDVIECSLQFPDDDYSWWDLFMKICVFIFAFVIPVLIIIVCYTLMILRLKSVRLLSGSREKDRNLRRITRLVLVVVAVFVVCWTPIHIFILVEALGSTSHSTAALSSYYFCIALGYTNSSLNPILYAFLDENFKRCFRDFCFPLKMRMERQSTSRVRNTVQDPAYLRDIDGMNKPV
Chain of Kappa-type opioid receptor (Cavia porcellus) (P41144 whole entry): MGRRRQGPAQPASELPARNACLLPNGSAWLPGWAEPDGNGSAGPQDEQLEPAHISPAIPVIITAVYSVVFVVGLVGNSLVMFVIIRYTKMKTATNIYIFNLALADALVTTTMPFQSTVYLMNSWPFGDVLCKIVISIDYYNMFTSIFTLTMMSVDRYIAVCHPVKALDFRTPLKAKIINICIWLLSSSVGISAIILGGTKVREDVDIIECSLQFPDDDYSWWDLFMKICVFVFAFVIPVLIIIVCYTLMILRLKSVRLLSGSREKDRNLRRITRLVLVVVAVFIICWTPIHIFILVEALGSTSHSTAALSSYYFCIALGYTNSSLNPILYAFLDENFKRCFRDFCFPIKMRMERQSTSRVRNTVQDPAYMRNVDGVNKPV
Chain of Mu-type opioid receptor (Cavia porcellus) (P97266 whole entry): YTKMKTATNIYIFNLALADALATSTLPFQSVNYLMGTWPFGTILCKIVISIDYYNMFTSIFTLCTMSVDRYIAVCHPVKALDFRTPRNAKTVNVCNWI
Chain of Opioid receptors; mu & kappa (Homo sapiens) (P35372 whole entry, looked up): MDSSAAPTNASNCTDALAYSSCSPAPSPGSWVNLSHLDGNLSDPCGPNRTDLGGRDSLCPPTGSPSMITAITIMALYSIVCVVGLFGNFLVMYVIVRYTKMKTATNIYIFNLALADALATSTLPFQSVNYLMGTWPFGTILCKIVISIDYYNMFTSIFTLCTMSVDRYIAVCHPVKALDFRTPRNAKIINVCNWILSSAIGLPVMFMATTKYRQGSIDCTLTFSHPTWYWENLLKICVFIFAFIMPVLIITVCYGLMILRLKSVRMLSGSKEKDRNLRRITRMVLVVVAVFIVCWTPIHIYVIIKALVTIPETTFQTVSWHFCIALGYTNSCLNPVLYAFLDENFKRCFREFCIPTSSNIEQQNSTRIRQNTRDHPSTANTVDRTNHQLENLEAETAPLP
Chain of Opioid receptors; mu & kappa (Homo sapiens) (P41145 whole entry, looked up): as the sequence (P41145 whole entry, looked up) above
Chain of Delta-type opioid receptor (Mus musculus) (P32300 whole entry): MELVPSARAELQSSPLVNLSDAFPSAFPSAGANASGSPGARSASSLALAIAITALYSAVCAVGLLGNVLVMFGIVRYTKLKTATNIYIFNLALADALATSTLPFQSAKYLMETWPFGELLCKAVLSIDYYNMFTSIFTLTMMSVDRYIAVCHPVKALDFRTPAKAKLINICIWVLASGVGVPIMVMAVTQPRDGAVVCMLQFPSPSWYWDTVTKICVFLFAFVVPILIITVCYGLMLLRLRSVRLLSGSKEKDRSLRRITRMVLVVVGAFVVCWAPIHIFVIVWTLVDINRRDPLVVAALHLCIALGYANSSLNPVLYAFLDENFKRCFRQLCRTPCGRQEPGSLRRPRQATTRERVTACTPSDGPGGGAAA
Chain of Kappa-type opioid receptor (P41144 whole entry): as the sequence (P41144 whole entry) above
Chain of Mu-type opioid receptor (P97266 whole entry): as the sequence (P97266 whole entry) above

For `CCCC(=N)NCc1ccc2[nH]c3c(c2c1)C[C@@]1(O)[C@H]2Cc4ccc(O)c5c4[C@@]1(CCN2CC1CC1)C3O5` (stereo partly specified), the figures for the IC50 ratio in assay [1], in assay [2] and in assay [3] were 185, 3 and 19.3, respectively. The figures for the Selectivity ratio in assay [4] and in assay [5] were 62 and 10, respectively.
On to `CCCCC(=N)NCc1ccc2[nH]c3c(c2c1)C[C@@]1(O)[C@H]2Cc4ccc(O)c5c4[C@@]1(CCN2CC1CC1)C3O5` (stereo partly specified), for which the values for the IC50 ratio in assay [1], in assay [2] and in assay [3] were 439, 4.71 and 15.7, respectively. The Ki (as a rule, the equilibrium dissociation constant of an inhibitor or competing ligand from its target) in assay [6] is 0.061 nM; in assay [7] it was 3.5 nM. Also, the Selectivity ratio in assay [4] turned out to be 93; in assay [5], 28.
With `CCC(=N)NCc1ccc2[nH]c3c(c2c1)C[C@@]1(O)[C@H]2Cc4ccc(O)c5c4[C@@]1(CCN2CC1CC1)C3O5` (stereo partly specified), the IC50 ratio in assay [1] amounted to 159; in assay [2], 2.28; in assay [3], 11.3. The figures for the Selectivity ratio in assay [4] and in assay [5] were 69 and 14, respectively.
For the molecule `Oc1ccc2c3c1O[C@H]1c4[nH]c5c(c4C[C@@]4(O)[C@@H](C2)N(CC2CC2)CC[C@]314)C[C@@]1(O)[C@H]2Cc3ccc(O)c4c3[C@@]1(CCN2CC1CC1)[C@H]5O4` [NORBINALTORPHIMINE], the Ki in assay [6] stood at 0.28 nM. This counts as sub-nanomolar.
For `Oc1ccc2c3c1O[C@H]1c4[nH]c5ccccc5c4C[C@@]4(O)[C@@H](C2)N(CC2CC2)CC[C@]314`, the IC50 ratio in assay [1] was determined as 1.3; in assay [2] it was 459; in assay [3] it was 11.2.
